Test results from patent US10350210B2, “EGFR and ALK dual inhibitor” (PRECEDO PHARMACEUTICALS CO., LTD, priority 2015, dated 2019).

What was measured:
Type in all cases: cell-based
BaF3-EML4-ALK = assay: Cell growth (Cell Titer-Glo viability), BaF3-EML4-ALK; details: Mus musculus, Ba/F3 EML4-ALK; BaF3-EML4-ALK (stably expressing EML4-ALK protein), 72 hrs
Excerpt: (§1) By testing the effect of the novel kinase inhibitors on the proliferation of cancer cells, the selectivity of the compounds of the present disclosure in inhibiting the proliferation of cancer cells was further assessed. In this example, human non-small cell lung cancer cell NCI-H1975 (expressing EGFR L858R/T790M double mutant gene), human skin squamous carcinoma cell A431 (expressing wild-type EGFR gene), non-small cell lung cancer NCI-H3255 (expressing EGFR L858R mutant gene), non-small cell lung cancer cell NCI-H3122 (expressing ALK gene), human non-small cell lung cancer cell A549 (expressing wild-type EGFR gene), human non-small cell lung cancer cell NCI-H2122 (expressing wild-type EGFR gene), human non-small cell lung cancer cell NCI-H460 (expressing wild-type EGFR gene), human non-small cell lung cancer cell PC-9 (expressing EGFR delE746_A750 mutant gene), Chinese hamster ovary cell CHO (Cricetulus griseus, hamster, Chinese, ovary), Chinese hamster lung cell CHL, human non-small cell lung cancer cell HCC827 (expressing mutant EGFR del19 gene), human lung adenocarcinoma cell HCC4006 (expressing mutant EGFR del19 gene), human non-small cell lung cancer cell NCI-H2228 (expressing wild-type ALK gene), and mouse primary B cell BaF3 were used, and the above cells were all purchased from ATCC (US). In addition, mouse BaF3-TEL-ALK (stably expressing ALK kinase), mouse BaF3-ALK-F1174L (stably expressing mutant ALK F1174L kinase), mouse BaF3-NPM-ALK (stably expressing ALK kinase), mouse BaF3-TEL-EGFR (stably expressing EGFR kinase), mouse BaF3-TEL-EGFR-T790M (stably expressing EGFR T790M mutant kinase), mouse BaF3-FL-EGFR-Del19 (stably expressing EGFR delE746_A750 mutant kinase), mouse BaF3-TEL-EGFR-L858R (stably expressing EGFR L858R mutant kinase), mouse BaF3-FL-EGFR-T790M-L858R (stably expressing EGFR T790M/L858R mutant kinase), mouse BaF3-TEL-INSR (stably expressing INSR protein), mouse BaF3-TEL-IGF1R (stably expressing IGF1R Protein), mouse BaF3-EML4-ALK (stably expressing EML4-ALK Protein), mouse BaF3-TEL-JAK3 (stably expressing JAK3 kinase protein), mouse BaF3-TEL-CSF1R (stably expressing CSF1R protein), and mouse BaF3-TEL-ALK-F1196M (stably expressing ALK F1196M mutant kinase) were also used in this example. The above cell lines were all established by our laboratory via the following process: kinase proteins or protein domain sequences of human ALK, ALK F1174L, EGFR, EGFR T790M, EGFR delE746_A750, EGFR L858, EGFR T790M/L858R, INSR, IGF1R, EML4-ALK, JAK3, CSF1R, ALK F1196M were amplified respectively by PCR, and were respectively inserted into MSCV-Puro vector (Clontech) with N-terminal TEL fragments and/or NPM fragments and/or TPR fragments; the resultants were stably transfected into mouse BaF3 cells by the means of retrovirus, and the IL-3 growth factors were removed, and eventually the ALK, ALK F1174L, EGFR, EGFR T790M, EGFR delE746_A750, EGFR L858, EGFR T790M/L858R, INSR, IGF1R, EML4-ALK, JAK3, CSF1R, ALK F1196M-transferred protein dependent cell lines were obtained.
(§2) The number of viable cells was determined quantitatively by a microplate reader using Cell Titer-Glo® (Promega, US) chemiluminescence cell viability assay kit.

BaF3-TEL-INSR = assay: Cell growth (Cell Titer-Glo viability), BaF3-TEL-INSR; details: Mus musculus; BaF3-TEL-INSR (stably expressing INSR protein), 72 hrs
Excerpt: as §1, §2

NCI-H1975 = assay: Growth of cancer cells (Cell Titer-Glo viability), NCI-H1975; details: Homo sapiens; NCI-H1975 (EGFR L858R/T790M double mutant), 72 hrs
How it was run: (§3)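 Cells are counted as viable by CellTiter-Glo chemiluminescence. Murine BaF3 lines depend on a stably transfected TEL-fused kinase after IL-3 withdrawal, and the NSCLC lines express mutant EGFR.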

BaF3-TEL-CSF1R = assay: Cell growth (Cell Titer-Glo viability), BaF3-TEL-CSF1R; details: Mus musculus; BaF3-TEL-CSF1R (stably expressing CSF1R protein), 72 hrs
Excerpt: as §1, with “The above cell lines were all established by our laboratory via the following process: kinase proteins or protein domain sequences of human ALK, ALK F1174L, EGFR, EGFR T790M, EGFR delE746_A750, EGFR L858, EGFR T790M/L858R, INSR, IGF1R, EML4-ALK, JAK3, CSF1R, ALK F1196M were amplified respectively by PCR, and were respectively inserted into MSCV-Puro vector (Clontech) with N-terminal TEL fragments and/or NPM fragments and/or TPR fragments; the resultants were stably transfected into mouse BaF3 cells by the means of retrovirus, and the IL-3 growth factors were removed, and eventually the ALK, ALK F1174L, EGFR, EGFR T790M, EGFR delE746_A750, EGFR L858, EGFR T790M/L858R, INSR, IGF1R, EML4-ALK, JAK3, CSF1R, ALK F1196M-transferred protein dependent cell lines were obtained.” left out
as §2

BaF3-TEL-JAK3 = assay: Cell growth (Cell Titer-Glo viability), BaF3-TEL-JAK3; details: Mus musculus; BaF3-TEL-JAK3 (stably expressing JAK3 kinase protein), 72 hrs
Excerpt: as §1, §2

PC-9 = assay: Growth of cancer cells (Cell Titer-Glo viability), PC-9; details: Homo sapiens; PC-9 (EGFR delE746_A750 mutant), 72 hrs
How it was run: as §3

NCI-H3122 = assay: Growth of cancer cells (Cell Titer-Glo viability), NCI-H3122; details: Homo sapiens; NCI-H3122 (expressing ALK gene), 72 hrs; read-out: GI50
BaF3 = assay: Cell growth (Cell Titer-Glo viability), BaF3; details: BaF3 mouse primary B cell, 72 hrs
HCC827 = assay: Growth of cancer cells (Cell Titer-Glo viability), HCC827; details: Homo sapiens; HCC827 (mutant EGFR del19), 72 hrs
How it was run: (§4)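 BaF3, TEL-kinase fusion, IL-3-free, transgene-driven growth; HCC827 = EGFR del19, NCI-H3255 = EGFR L858R. Viable cells via CellTiter-Glo, plate-reader luminescence.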

BaF3-TEL-ALK = assay: Cell growth (Cell Titer-Glo viability), BaF3-TEL-ALK; details: Mus musculus; BaF3-TEL-ALK (stably expressing ALK kinase), 72 hrs
How it was run: as §4

A549 = assay: Growth of cancer cells (Cell Titer-Glo viability), A549; details: Homo sapiens; A549 (wild-type EGFR), 72 hrs
BaF3-TEL-EGFR-T790M = assay: Cell growth (Cell Titer-Glo viability), BaF3-TEL-EGFR-T790M; details: Mus musculus; BaF3-TEL-EGFR-T790M (EGFR T790M mutant kinase), 72 hrs
How it was run: as §4

BaF3-TEL-IGF1R = assay: Cell growth (Cell Titer-Glo viability), BaF3-TEL-IGF1R; details: Mus musculus; BaF3-TEL-IGF1R (stably expressing IGF1R protein), 72 hrs
Excerpt: as §1, with “The above cell lines were all established by our laboratory via the following process: kinase proteins or protein domain sequences of human ALK, ALK F1174L, EGFR, EGFR T790M, EGFR delE746_A750, EGFR L858, EGFR T790M/L858R, INSR, IGF1R, EML4-ALK, JAK3, CSF1R, ALK F1196M were amplified respectively by PCR, and were respectively inserted into MSCV-Puro vector (Clontech) with N-terminal TEL fragments and/or NPM fragments and/or TPR fragments; the resultants were stably transfected into mouse BaF3 cells by the means of retrovirus, and the IL-3 growth factors were removed, and eventually the ALK, ALK F1174L, EGFR, EGFR T790M, EGFR delE746_A750, EGFR L858, EGFR T790M/L858R, INSR, IGF1R, EML4-ALK, JAK3, CSF1R, ALK F1196M-transferred protein dependent cell lines were obtained.” left out
as §2

| GI50 (BaF3-EML4-ALK) [nM] | GI50 (BaF3-TEL-INSR) [nM] | GI50 (NCI-H1975) [nM] | GI50 (BaF3-TEL-CSF1R) [nM] | GI50 (BaF3-TEL-JAK3) [nM] | GI50 (PC-9) [nM] | GI50 (NCI-H3122) [nM] | GI50 (BaF3) [nM] | GI50 (HCC827) [nM] | GI50 (BaF3-TEL-ALK) [nM] | GI50 (A549) [nM] | GI50 (BaF3-TEL-EGFR-T790M) [nM] | GI50 (BaF3-TEL-IGF1R) [nM] | SMILES |
| --- | --- | --- | --- | --- | --- | --- | --- | --- | --- | --- | --- | --- | --- |
| 1.4 | 49 | 79 | 100 | 37 | 15 | 4.5 | 1100 | 62 |  |  |  |  | C=CC(=O)Nc1cc(Nc2ncc(Cl)c(Nc3ccccc3C(=O)NC)n2)c(OC)cc1N1CCN(C(C)C)CC1 [Compound 69, 2-(2-(5-acrylamido-4-(4-isopropylpiperazin-1-yl)-2-methoxyphenylamino)-5-chloropyrimidin-4-ylamino)-N-methylbenzamide] |
| 160 | 14 | 250 |  | 270 | 97 | 12 | 5700 | 83 | 120 | 1700 | 250 | 41 | C=CC(=O)Nc1cc(Nc2ncc(Cl)c(Nc3ccccc3C(=O)NC)n2)c(OC)cc1N1CCN(C(C)=O)CC1 [Compound 68, 2-(2-(4-(4-ethanoylpiperazin-1-yl)-5-acrylamido-2-methoxyphenylamino)-5-chloropyrimidin-4-ylamino)-N-methylbenzamide] |
| 4.5 | < 0.3 | 65 | 170 | 58 | 35 | 7.6 | 1000 | 140 |  |  |  |  | C=CC(=O)Nc1cc(Nc2ncc(Cl)c(Nc3ccccc3C(=O)NC)n2)c(OC)cc1N1CCN(C2CCCCC2)CC1 [Compound 70, 2-(2-(5-acrylamido-4-(4-cyclohexylpiperazin-1-yl)-2-methoxyphenylamino)-5-chloropyrimidin-4-ylamino)-N-methylbenzamide] |
